In ChEMBL document CHEMBL4507268 (2021):

How the values were obtained:
[1] = target: Ephrin type-A receptor 4 (Homo sapiens) (UniProt P54764); details: Compound concentration 1.0 uM
[2] = target: Serine/threonine-protein kinase 16 (Homo sapiens) (UniProt O75716); details: Compound concentration 1.0 uM
[3] = target: Macrophage colony-stimulating factor 1 receptor (Homo sapiens) (UniProt P07333); details: Compound concentration 1.0 uM
[4] = target: Tyrosine-protein kinase JAK2 (Homo sapiens) (UniProt O60674); details: Compound concentration 1.0 uM
[5] = target: Serine/threonine-protein kinase 24 (Homo sapiens) (UniProt Q9Y6E0); details: Compound concentration 1.0 uM
[6] = target: [Pyruvate dehydrogenase (acetyl-transferring)] kinase isozyme 4, mitochondrial (Homo sapiens) (UniProt Q16654); details: Compound concentration 1.0 uM
Sequence of [Pyruvate dehydrogenase (acetyl-transferring)] kinase isozyme 4, mitochondrial (Homo sapiens) (Q16654 whole entry, looked up): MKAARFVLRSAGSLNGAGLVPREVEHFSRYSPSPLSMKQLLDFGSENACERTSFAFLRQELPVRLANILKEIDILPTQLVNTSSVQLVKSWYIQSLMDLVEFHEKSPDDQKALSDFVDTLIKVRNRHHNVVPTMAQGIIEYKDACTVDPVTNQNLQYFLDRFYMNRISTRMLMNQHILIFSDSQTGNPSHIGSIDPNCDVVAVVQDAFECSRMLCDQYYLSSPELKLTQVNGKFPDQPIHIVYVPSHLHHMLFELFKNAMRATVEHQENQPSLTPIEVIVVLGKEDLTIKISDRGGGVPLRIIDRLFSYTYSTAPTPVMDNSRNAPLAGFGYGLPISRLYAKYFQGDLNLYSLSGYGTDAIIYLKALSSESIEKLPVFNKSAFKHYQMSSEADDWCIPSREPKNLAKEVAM

[7] = target: MAP/microtubule affinity-regulating kinase 3 (Homo sapiens) (UniProt P27448); details: Compound concentration 1.0 uM
Sequence of MAP/microtubule affinity-regulating kinase 3 (Homo sapiens) (P27448 whole entry, looked up): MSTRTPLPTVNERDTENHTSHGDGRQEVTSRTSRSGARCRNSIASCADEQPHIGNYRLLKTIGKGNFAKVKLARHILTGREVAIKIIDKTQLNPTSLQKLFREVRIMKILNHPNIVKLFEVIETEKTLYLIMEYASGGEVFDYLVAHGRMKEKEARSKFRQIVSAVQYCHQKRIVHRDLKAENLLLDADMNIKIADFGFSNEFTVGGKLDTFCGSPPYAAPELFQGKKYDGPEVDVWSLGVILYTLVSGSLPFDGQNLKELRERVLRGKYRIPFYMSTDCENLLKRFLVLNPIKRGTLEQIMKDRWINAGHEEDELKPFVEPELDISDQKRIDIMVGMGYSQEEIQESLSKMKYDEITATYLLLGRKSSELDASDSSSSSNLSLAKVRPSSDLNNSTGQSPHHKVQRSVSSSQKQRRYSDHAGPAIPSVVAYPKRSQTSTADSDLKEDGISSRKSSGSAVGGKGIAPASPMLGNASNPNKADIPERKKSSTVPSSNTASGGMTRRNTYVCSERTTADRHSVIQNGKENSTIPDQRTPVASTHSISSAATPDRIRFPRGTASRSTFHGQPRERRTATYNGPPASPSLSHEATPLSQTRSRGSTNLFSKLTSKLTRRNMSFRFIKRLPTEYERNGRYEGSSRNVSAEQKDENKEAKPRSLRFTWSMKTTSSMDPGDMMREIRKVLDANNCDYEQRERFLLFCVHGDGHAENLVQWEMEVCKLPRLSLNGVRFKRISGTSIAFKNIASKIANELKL

[8] = target: T1, Serine/threonine-protein kinase BRSK2 (Homo sapiens) (UniProt Q8IWQ3); details: Compound concentration 1.0 uM
T1 sequence (whole entry): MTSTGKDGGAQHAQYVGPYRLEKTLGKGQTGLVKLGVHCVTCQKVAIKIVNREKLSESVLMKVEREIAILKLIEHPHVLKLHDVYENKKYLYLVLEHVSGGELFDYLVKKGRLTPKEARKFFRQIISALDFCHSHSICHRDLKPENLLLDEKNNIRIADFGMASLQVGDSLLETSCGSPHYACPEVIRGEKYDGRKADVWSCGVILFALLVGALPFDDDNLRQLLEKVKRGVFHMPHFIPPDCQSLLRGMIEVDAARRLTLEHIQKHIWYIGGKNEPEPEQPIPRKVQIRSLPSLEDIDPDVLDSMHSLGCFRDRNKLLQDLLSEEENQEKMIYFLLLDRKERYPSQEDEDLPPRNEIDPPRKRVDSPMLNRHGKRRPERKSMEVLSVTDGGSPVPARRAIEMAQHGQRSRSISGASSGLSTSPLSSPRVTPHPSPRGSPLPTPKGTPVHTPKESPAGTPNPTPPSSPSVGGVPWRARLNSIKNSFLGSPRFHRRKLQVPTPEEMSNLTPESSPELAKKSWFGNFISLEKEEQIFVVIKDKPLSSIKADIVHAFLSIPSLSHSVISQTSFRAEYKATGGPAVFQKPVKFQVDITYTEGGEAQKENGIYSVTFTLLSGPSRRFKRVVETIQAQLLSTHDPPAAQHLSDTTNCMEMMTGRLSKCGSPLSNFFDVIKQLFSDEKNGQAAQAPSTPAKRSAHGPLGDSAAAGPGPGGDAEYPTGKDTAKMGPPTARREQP

[9] = target: Myosin light chain kinase 2, skeletal/cardiac muscle (Homo sapiens) (UniProt Q9H1R3); details: Compound concentration 1.0 uM
[10] = target: Vascular endothelial growth factor receptor 1 (Homo sapiens) (UniProt P17948); details: Compound concentration 1.0 uM
Sequence of Vascular endothelial growth factor receptor 1 (Homo sapiens) (P17948 whole entry): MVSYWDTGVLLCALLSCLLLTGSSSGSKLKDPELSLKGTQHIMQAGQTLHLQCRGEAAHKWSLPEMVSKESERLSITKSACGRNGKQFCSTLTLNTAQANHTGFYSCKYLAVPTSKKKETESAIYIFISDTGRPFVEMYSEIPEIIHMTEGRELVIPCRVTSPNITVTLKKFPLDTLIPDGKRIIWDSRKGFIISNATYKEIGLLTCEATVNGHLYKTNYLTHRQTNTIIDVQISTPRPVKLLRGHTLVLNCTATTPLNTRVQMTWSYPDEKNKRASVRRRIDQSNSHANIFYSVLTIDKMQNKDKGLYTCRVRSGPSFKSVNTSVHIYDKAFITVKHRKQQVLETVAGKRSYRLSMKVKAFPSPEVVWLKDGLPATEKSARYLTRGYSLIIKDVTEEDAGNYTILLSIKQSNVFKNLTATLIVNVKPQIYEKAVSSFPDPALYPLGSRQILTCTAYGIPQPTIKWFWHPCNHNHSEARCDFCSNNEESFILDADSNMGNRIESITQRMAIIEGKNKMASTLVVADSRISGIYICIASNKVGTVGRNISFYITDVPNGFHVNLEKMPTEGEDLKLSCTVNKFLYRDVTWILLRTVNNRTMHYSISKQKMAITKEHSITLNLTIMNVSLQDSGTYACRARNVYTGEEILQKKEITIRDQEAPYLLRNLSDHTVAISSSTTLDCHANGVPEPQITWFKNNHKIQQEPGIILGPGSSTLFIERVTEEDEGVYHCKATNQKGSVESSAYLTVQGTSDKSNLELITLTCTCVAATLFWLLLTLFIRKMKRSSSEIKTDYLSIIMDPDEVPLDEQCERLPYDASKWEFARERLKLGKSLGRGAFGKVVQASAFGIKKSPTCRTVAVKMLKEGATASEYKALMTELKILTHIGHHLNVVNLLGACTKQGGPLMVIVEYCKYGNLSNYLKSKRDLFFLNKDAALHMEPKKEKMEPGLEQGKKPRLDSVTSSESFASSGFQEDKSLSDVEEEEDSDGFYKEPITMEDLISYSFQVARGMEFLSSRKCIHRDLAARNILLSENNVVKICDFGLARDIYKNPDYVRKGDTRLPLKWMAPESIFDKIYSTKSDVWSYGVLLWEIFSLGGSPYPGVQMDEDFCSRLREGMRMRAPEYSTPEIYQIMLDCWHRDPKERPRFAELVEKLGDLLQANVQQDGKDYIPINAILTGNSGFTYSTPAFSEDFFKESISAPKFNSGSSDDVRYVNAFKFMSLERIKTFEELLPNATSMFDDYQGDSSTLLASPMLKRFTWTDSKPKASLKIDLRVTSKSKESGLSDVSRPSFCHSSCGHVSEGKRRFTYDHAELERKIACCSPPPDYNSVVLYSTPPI

[11] = target: Alpha-2B adrenergic receptor (Homo sapiens) (UniProt P18089); details: Compound concentration 10.0 uM
[12] = target: Maternal embryonic leucine zipper kinase (Homo sapiens) (UniProt Q14680); details: Compound concentration 1.0 uM
[13] = target: Mitogen-activated protein kinase 8 (Homo sapiens) (UniProt P45983); details: Compound concentration 1.0 uM
Sequence of Mitogen-activated protein kinase 8 (Homo sapiens) (P45983 whole entry): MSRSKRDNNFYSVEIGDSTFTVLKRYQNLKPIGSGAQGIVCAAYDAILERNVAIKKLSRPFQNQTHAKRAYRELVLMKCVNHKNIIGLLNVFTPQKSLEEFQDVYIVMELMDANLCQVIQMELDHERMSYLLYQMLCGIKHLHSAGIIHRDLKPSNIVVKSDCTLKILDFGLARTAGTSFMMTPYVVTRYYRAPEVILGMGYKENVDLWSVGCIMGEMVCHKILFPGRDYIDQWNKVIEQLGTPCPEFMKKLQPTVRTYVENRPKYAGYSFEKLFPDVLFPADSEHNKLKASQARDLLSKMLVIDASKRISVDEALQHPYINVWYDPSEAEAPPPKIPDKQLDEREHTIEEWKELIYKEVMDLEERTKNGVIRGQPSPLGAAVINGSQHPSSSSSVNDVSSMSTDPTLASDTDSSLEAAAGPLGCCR

[14] = target: Macrophage-stimulating protein receptor (Homo sapiens) (UniProt Q04912); details: Compound concentration 1.0 uM
[15] = target: Casein kinase II subunit alpha' (Homo sapiens) (UniProt P19784); details: Compound concentration 1.0 uM
Sequence of Casein kinase II subunit alpha' (Homo sapiens) (P19784 whole entry, looked up): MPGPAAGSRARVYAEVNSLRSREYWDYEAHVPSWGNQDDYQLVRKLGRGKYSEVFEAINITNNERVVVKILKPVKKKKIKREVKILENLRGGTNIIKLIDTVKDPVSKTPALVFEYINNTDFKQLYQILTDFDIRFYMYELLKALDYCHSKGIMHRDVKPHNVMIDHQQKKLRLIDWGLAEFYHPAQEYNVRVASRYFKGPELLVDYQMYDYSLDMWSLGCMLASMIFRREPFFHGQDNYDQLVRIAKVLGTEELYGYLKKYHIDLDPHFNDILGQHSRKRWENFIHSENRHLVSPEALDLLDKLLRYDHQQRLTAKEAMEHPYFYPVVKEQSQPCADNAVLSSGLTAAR

[16] = target: Tyrosine-protein kinase JAK1 (Homo sapiens) (UniProt P23458); details: Compound concentration 1.0 uM
Sequence of Tyrosine-protein kinase JAK1 (Homo sapiens) (P23458 whole entry): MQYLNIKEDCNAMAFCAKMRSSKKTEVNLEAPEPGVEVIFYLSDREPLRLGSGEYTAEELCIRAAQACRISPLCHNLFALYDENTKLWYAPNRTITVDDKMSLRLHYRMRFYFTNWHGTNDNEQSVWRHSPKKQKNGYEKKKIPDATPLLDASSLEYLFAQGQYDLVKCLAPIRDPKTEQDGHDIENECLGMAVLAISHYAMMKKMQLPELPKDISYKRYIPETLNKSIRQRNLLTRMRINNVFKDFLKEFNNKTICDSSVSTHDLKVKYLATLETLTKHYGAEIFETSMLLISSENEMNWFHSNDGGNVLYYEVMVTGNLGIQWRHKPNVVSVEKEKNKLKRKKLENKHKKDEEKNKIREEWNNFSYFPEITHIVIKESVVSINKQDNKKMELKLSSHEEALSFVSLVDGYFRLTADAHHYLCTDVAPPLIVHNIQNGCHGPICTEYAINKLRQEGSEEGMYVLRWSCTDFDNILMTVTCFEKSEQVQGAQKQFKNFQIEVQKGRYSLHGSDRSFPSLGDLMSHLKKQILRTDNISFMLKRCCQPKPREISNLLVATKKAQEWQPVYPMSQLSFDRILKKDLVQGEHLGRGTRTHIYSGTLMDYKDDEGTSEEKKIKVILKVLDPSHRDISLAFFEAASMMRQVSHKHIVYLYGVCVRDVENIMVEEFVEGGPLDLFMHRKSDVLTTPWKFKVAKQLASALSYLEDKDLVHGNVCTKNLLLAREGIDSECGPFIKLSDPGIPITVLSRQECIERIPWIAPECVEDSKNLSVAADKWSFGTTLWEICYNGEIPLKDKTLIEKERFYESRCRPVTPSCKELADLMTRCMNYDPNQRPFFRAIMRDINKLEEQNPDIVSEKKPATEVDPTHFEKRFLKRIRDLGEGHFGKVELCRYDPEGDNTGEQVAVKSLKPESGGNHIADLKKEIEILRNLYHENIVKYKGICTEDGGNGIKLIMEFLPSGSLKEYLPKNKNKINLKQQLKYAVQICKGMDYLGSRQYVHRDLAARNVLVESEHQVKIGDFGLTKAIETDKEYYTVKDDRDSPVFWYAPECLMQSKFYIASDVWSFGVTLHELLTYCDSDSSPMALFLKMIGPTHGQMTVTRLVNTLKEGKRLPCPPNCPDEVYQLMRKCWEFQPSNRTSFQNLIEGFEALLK

[17] = target: Serine-protein kinase ATM (Homo sapiens) (UniProt Q13315); details: Compound concentration 1.0 uM
[18] = organism: Homo sapiens; details: Compound concentration 1.0 uM
[19] = target: T2, Ephrin type-B receptor 3 (Homo sapiens) (UniProt P54753); details: Compound concentration 1.0 uM
T2 sequence (whole entry): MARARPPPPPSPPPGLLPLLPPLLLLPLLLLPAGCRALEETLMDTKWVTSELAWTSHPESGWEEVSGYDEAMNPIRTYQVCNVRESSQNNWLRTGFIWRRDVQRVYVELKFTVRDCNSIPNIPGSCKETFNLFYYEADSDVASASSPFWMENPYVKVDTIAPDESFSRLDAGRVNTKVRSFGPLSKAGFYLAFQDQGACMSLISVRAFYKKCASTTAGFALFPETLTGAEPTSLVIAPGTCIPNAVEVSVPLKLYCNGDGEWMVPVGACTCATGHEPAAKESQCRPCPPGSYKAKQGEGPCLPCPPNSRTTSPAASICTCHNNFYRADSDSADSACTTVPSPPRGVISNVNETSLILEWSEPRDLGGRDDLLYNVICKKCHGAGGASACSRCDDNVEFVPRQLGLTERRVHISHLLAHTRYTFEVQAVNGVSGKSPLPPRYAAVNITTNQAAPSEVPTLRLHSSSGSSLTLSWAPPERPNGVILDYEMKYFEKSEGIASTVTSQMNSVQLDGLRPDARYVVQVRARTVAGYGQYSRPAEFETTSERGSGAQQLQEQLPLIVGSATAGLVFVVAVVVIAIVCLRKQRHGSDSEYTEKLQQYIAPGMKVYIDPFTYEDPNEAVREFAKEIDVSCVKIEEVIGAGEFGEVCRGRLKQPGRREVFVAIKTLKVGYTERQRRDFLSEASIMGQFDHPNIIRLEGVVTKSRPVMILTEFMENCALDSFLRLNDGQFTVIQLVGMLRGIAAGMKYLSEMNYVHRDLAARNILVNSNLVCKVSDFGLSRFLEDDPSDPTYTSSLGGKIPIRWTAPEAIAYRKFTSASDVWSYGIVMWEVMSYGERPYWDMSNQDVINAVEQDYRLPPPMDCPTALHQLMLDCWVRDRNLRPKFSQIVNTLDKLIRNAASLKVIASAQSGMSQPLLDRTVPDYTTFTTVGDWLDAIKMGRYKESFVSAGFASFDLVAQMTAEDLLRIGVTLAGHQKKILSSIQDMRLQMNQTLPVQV

Sequence of Serine/threonine-protein kinase 16 (Homo sapiens) (O75716 whole entry): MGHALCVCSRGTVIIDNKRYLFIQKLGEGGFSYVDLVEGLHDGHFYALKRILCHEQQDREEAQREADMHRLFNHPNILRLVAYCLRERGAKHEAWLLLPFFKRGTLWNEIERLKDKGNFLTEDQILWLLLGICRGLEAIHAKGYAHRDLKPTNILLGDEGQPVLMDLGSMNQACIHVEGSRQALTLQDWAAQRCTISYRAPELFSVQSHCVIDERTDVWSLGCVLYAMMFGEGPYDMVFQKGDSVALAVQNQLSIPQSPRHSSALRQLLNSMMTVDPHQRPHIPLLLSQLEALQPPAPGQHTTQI

CN1CCN(c2cnc3c(C4CCN(C(=O)c5ccc(OC(F)(F)F)cc5N)CC4)ncnc3c2)CC1 [BAY-885]
inactive: % residual kinase activity [1] 82% | % residual kinase activity [2] 99% | % residual kinase activity [3] 118% | % residual kinase activity [4] 100% | % residual kinase activity [5] 99% | % residual kinase activity [6] 104% | % residual kinase activity [7] 100% | % residual kinase activity [8] 102% | % residual kinase activity [9] 93% | % residual kinase activity [10] 108% | inhibition [11] -8.47% | % residual kinase activity [12] 105% | % residual kinase activity [13] 104% | % residual kinase activity [14] 100% | % residual kinase activity [15] 94% | % residual kinase activity [16] 104% | % residual kinase activity [17] 107% | % residual kinase activity [18] 107% | % residual kinase activity [19] 42%
